In ChEMBL document CHEMBL1201861, “Genomics of Drug Sensitity in Cancer screening data, Wellcome Trust Sanger Institute”:

These compounds were tested on NCI-H810 (assay: cells). Conditions: Homo sapiens.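 Also: IC50 reflects inhibition of cancer cell line growth, read out with a cell viability assay.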
Format: functional, cell-based
Description: SANGER: Inhibition of human NCI-H810 cell growth in a cell viability assay.

SMILES | IC50 [µM]
COc1ccc(-c2cc3nccn3c(Nc3ncccc3C(N)=O)n2)cc1OC | 4.44

What follows are compounds tested on MEL-HO (assay: cells). Conditions: Homo sapiens.
Format: functional, cell-based
Description: SANGER: Inhibition of human MEL-HO cell growth in a cell viability assay.

SMILES | IC50 [µM]
COc1ccc(-c2cc3nccn3c(Nc3ncccc3C(N)=O)n2)cc1OC | 2.95

Each compound was assayed on T-24 (assay: cells). Conditions: Homo sapiens.
Format: functional, cell-based
Description: SANGER: Inhibition of human T-24 cell growth in a cell viability assay.

SMILES | IC50 [µM]
COc1ccc(-c2cc3nccn3c(Nc3ncccc3C(N)=O)n2)cc1OC | > 8

What follows are compounds tested on CAL-148 (assay: cells). Conditions: Homo sapiens, CAL-148.
Format: functional, cell-based, Homo sapiens
Description: SANGER: Inhibition of human CAL-148 cell growth in a cell viability assay.

SMILES | IC50 [µM]
COc1ccc(-c2cc3nccn3c(Nc3ncccc3C(N)=O)n2)cc1OC | > 8

Each compound was assayed on ARH-77 (assay: cells). Conditions: Homo sapiens, ARH-77.
Format: functional, cell-based, Homo sapiens
Description: SANGER: Inhibition of human ARH-77 cell growth in a cell viability assay.

SMILES | IC50 [µM]
COc1ccc(-c2cc3nccn3c(Nc3ncccc3C(N)=O)n2)cc1OC | 3.06

These compounds were tested on UO-31 (assay: cells). Conditions: Homo sapiens.
Format: functional, cell-based
Description: SANGER: Inhibition of human U031 cell growth in a cell viability assay.

SMILES | IC50 [µM]
COc1ccc(-c2cc3nccn3c(Nc3ncccc3C(N)=O)n2)cc1OC | 6.71

These compounds were tested on SNU-16 (assay: cells). Conditions: Homo sapiens, SNU-16.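 Also: growth inhibition of human SNU-16 cells, determined with a cell viability readout.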
Format: functional, cell-based, Homo sapiens
Description: SANGER: Inhibition of human NCI-SNU-16 cell growth in a cell viability assay.

SMILES | IC50 [µM]
COc1ccc(-c2cc3nccn3c(Nc3ncccc3C(N)=O)n2)cc1OC | > 8

Each compound was assayed on IM-9 (assay: SANGER: Inhibition of human IM-9 cell growth in a cell viability assay.). Conditions: Homo sapiens, IM-9.
Format: functional, cell-based

SMILES | IC50 [µM]
COc1ccc(-c2cc3nccn3c(Nc3ncccc3C(N)=O)n2)cc1OC | > 8

The compounds below were run on HTC-C3 (assay: cells). Conditions: Homo sapiens.
Format: functional, cell-based
Description: SANGER: Inhibition of human HTC-C3 cell growth in a cell viability assay.

SMILES | IC50 [µM]
COc1ccc(-c2cc3nccn3c(Nc3ncccc3C(N)=O)n2)cc1OC | > 8

What follows are compounds tested on NY (assay: cells). Conditions: Homo sapiens.
Format: functional, cell-based
Description: SANGER: Inhibition of human NY cell growth in a cell viability assay.

SMILES | IC50 [µM]
COc1ccc(-c2cc3nccn3c(Nc3ncccc3C(N)=O)n2)cc1OC | > 8

What follows are compounds tested on MKN-1 (assay: cells). Conditions: Homo sapiens.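 Also: growth inhibition of human MKN1 cells, read out by a cell viability measurement.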
Format: functional, cell-based
Description: SANGER: Inhibition of human MKN1 cell growth in a cell viability assay.

SMILES | IC50 [µM]
COc1ccc(-c2cc3nccn3c(Nc3ncccc3C(N)=O)n2)cc1OC | 7.3

What follows are compounds tested on NCI-H510A (assay: cells). Conditions: Homo sapiens, NCI-H510A.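 Also: growth inhibition of NCI-H510A cells, read out with a cell viability assay.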
Format: functional, cell-based, Homo sapiens
Description: SANGER: Inhibition of human NCI-H510A cell growth in a cell viability assay.

SMILES | IC50 [µM]
COc1ccc(-c2cc3nccn3c(Nc3ncccc3C(N)=O)n2)cc1OC | > 8

Each compound was assayed on EFO-27 (assay: cells). Conditions: Homo sapiens.
Format: functional, cell-based
Description: SANGER: Inhibition of human EFO-27 cell growth in a cell viability assay.

SMILES | IC50 [µM]
COc1ccc(-c2cc3nccn3c(Nc3ncccc3C(N)=O)n2)cc1OC | 2.06

The compounds below were run on SW1463 (assay: cells). Conditions: Homo sapiens.
Format: functional, cell-based
Description: SANGER: Inhibition of human SW1463 cell growth in a cell viability assay.

SMILES | IC50 [µM]
COc1ccc(-c2cc3nccn3c(Nc3ncccc3C(N)=O)n2)cc1OC | > 8

What follows are compounds tested on NCI-H522 (assay: cells). Conditions: Homo sapiens.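 Also: cell viability assay measuring growth inhibition of human NCI-H522 cells.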
Format: functional, cell-based
Description: SANGER: Inhibition of human NCI-H522 cell growth in a cell viability assay.

SMILES | IC50 [µM]
COc1ccc(-c2cc3nccn3c(Nc3ncccc3C(N)=O)n2)cc1OC | > 8

These compounds were tested on HCT-15 (assay: cells). Conditions: Homo sapiens.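 Also: cell viability readout, IC50 reflecting suppression of HCT-15 cell growth.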
Format: functional, cell-based
Description: SANGER: Inhibition of human HCT-15 cell growth in a cell viability assay.

SMILES | IC50 [µM]
COc1ccc(-c2cc3nccn3c(Nc3ncccc3C(N)=O)n2)cc1OC | 6.64

The compounds below were run on CAPAN-1 (assay: cells). Conditions: Homo sapiens.
Format: functional, cell-based
Description: SANGER: Inhibition of human CAPAN-1 cell growth in a cell viability assay.

SMILES | IC50 [µM]
COc1ccc(-c2cc3nccn3c(Nc3ncccc3C(N)=O)n2)cc1OC | 4.16

The compounds below were run on HLE (assay: cells). Conditions: Homo sapiens.
Format: functional, cell-based
Description: SANGER: Inhibition of human HLE cell growth in a cell viability assay.

SMILES | IC50 [µM]
COc1ccc(-c2cc3nccn3c(Nc3ncccc3C(N)=O)n2)cc1OC | 3.23

What follows are compounds tested on HGC-27 (assay: cells). Conditions: Homo sapiens.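 Also: growth inhibition of human HGC-27 cells, read out in a cell viability assay.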
Format: functional, cell-based
Description: SANGER: Inhibition of human HGC-27 cell growth in a cell viability assay.

SMILES | IC50 [µM]
COc1ccc(-c2cc3nccn3c(Nc3ncccc3C(N)=O)n2)cc1OC | 2.7

These compounds were tested on NCI-H1703 (assay: cells). Conditions: Homo sapiens.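 Also: growth inhibition of NCI-H1703 cells, read out via a cell viability assay.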
Format: functional, cell-based
Description: SANGER: Inhibition of human NCI-H1703 cell growth in a cell viability assay.

SMILES | IC50 [µM]
COc1ccc(-c2cc3nccn3c(Nc3ncccc3C(N)=O)n2)cc1OC | > 8

What follows are compounds tested on SIMA (assay: cells). Conditions: Homo sapiens, SIMA.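 Also: growth inhibition of SIMA cells, measured with a cell viability readout.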
Format: functional, cell-based, Homo sapiens
Description: SANGER: Inhibition of human SIMA cell growth in a cell viability assay.

SMILES | IC50 [µM]
COc1ccc(-c2cc3nccn3c(Nc3ncccc3C(N)=O)n2)cc1OC | 7.18

Each compound was assayed on MDA-MB-134-VI (assay: cells). Conditions: Homo sapiens, MDA-MB-134-VI.
Format: functional, cell-based, Homo sapiens
Description: SANGER: Inhibition of human MDA-MB-134-VI cell growth in a cell viability assay.

SMILES | IC50 [µM]
COc1ccc(-c2cc3nccn3c(Nc3ncccc3C(N)=O)n2)cc1OC | > 8

These compounds were tested on RD (assay: cells). Conditions: Homo sapiens.
Format: functional, cell-based
Description: SANGER: Inhibition of human RD cell growth in a cell viability assay.

SMILES | IC50 [µM]
COc1ccc(-c2cc3nccn3c(Nc3ncccc3C(N)=O)n2)cc1OC | > 8

What follows are compounds tested on Calu-3 (assay: cells). Conditions: Homo sapiens.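 Also: growth inhibition of human Calu-3 cells, determined with a cell viability assay.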
Format: functional, cell-based
Description: SANGER: Inhibition of human Calu-3 cell growth in a cell viability assay.

SMILES | IC50 [µM]
COc1ccc(-c2cc3nccn3c(Nc3ncccc3C(N)=O)n2)cc1OC | > 8

The compounds below were run on Raji (assay: cells). Conditions: Homo sapiens, Raji.
Format: functional, cell-based, Homo sapiens
Description: SANGER: Inhibition of human Raji cell growth in a cell viability assay.

SMILES | IC50 [µM]
COc1ccc(-c2cc3nccn3c(Nc3ncccc3C(N)=O)n2)cc1OC | 5.51

What follows are compounds tested on HN (assay: cells). Conditions: Homo sapiens.
Format: functional, cell-based
Description: SANGER: Inhibition of human HN cell growth in a cell viability assay.

SMILES | IC50 [µM]
COc1ccc(-c2cc3nccn3c(Nc3ncccc3C(N)=O)n2)cc1OC | > 8

The compounds below were run on SW780 (assay: cells). Conditions: Homo sapiens.
Format: functional, cell-based
Description: SANGER: Inhibition of human SW780 cell growth in a cell viability assay.

SMILES | IC50 [µM]
COc1ccc(-c2cc3nccn3c(Nc3ncccc3C(N)=O)n2)cc1OC | > 8

What follows are compounds tested on MC-IXC (assay: cells). Conditions: Homo sapiens.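 Also: growth inhibition of MC-IXC cells, read out with a cell viability assay.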
Format: functional, cell-based
Description: SANGER: Inhibition of human MC-IXC cell growth in a cell viability assay.

SMILES | IC50 [µM]
COc1ccc(-c2cc3nccn3c(Nc3ncccc3C(N)=O)n2)cc1OC | > 8

These compounds were tested on C3A (assay: cells). Conditions: Homo sapiens.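 Also: growth inhibition of C3A human cells, quantified with a cell viability readout.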
Format: functional, cell-based
Description: SANGER: Inhibition of human C3A cell growth in a cell viability assay.

SMILES | IC50 [µM]
COc1ccc(-c2cc3nccn3c(Nc3ncccc3C(N)=O)n2)cc1OC | 6.53
